Experimental data published in PubChem BioAssay AID330 (DTP/NCI, 2004).
“And” between values parts separate entries of the source, which are not always exact repeats. Equal values may be shown once. Toxic doses and inconclusive results are not listed. Rule for the calls: active = survival T/C of 150% or more; inactive = T/C below 125% in these data.

System: P388 leukemia ip, CD2F1 mice, survival T/C
Test: NCI In Vivo Anticancer Drug Screen. Data for tumor model P388 Leukemia (intraperitoneal) in CD2F1 (CDF1) mice
Conditions: endpoint: median survival time, higher = longer survival
How it was run: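 Mice carrying the transplanted tumor received test compound or vehicle. Survival was recorded in each group, and the value is the treated-group measurement divided by that of the vehicle-treated control group.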

[1] = dose: 50.0 mg/kg/injection, schedule: Q01DX005 (ip), vehicle: saline with Tween-80
[2] = dose: 100.0 mg/kg/injection, schedule: Q01DX005 (ip), vehicle: saline with Tween-80
[3] = dose: 200.0 mg/kg/injection, schedule: Q01DX005 (ip), vehicle: saline with Tween-80
[4] = dose: 100.0 mg/kg/injection, schedule: Q01DX001 (ip), vehicle: saline with Tween-80
[5] = dose: 200.0 mg/kg/injection, schedule: Q01DX001 (ip), vehicle: saline with Tween-80
[6] = dose: 400.0 mg/kg/injection, schedule: Q01DX001 (ip), vehicle: saline with Tween-80
[7] = dose: 60.0 mg/kg/injection, schedule: Q01DX005 (ip), vehicle: Klucel (hydroxypropylcellulose) (HPC)
[8] = dose: 120.0 mg/kg/injection, schedule: Q01DX005 (ip), vehicle: Klucel (hydroxypropylcellulose) (HPC)
[9] = dose: 50.0 mg/kg/injection, schedule: Q01DX005 (ip), vehicle: Klucel (hydroxypropylcellulose) (HPC)
[10] = dose: 100.0 mg/kg/injection, schedule: Q01DX005 (ip), vehicle: Klucel (hydroxypropylcellulose) (HPC)
[11] = dose: 200.0 mg/kg/injection, schedule: Q01DX005 (ip), vehicle: Klucel (hydroxypropylcellulose) (HPC)
[12] = dose: 6.25 mg/kg/injection, schedule: Q01DX005 (ip), vehicle: Klucel (hydroxypropylcellulose) (HPC)
[13] = dose: 12.5 mg/kg/injection, schedule: Q01DX005 (ip), vehicle: Klucel (hydroxypropylcellulose) (HPC)
[14] = dose: 50.0 mg/kg/injection, schedule: Q01DX009 (ip), vehicle: saline with Tween-80
[15] = dose: 100.0 mg/kg/injection, schedule: Q01DX009 (ip), vehicle: saline with Tween-80
[16] = dose: 200.0 mg/kg/injection, schedule: Q01DX009 (ip), vehicle: saline with Tween-80

Measured: T/C

C=C=CCN(C)Cc1ccccc1
inactive: dose: 25.0 mg/kg/injection, schedule: Q04DX002 (ip), vehicle: saline 106 % of control | dose: 50.0 mg/kg/injection, schedule: Q04DX002 (ip), vehicle: saline 93 % of control | dose: 100.0 mg/kg/injection, schedule: Q04DX002 (ip), vehicle: saline 100 % of control and 101 % of control

CN(C)c1ccc(C(Cc2ccc3ccccc3n2)Cc2ccc3ccccc3n2)cc1
inactive: [1] 99 % of control | [2] 88 % of control | [3] 89 % of control

O=C(O)/C(=C/c1ccc(/C=C(/C(=O)O)c2ccccc2)o1)c1ccccc1
inactive: [4] 101 % of control | [5] 97 % of control | [6] 101 % of control

O=P1(Oc2ccc(N=C=S)cc2)OCCCO1
inactive: [7] 102 % of control | [8] 103 % of control | dose: 240.0 mg/kg/injection, schedule: Q01DX005 (ip), vehicle: Klucel (hydroxypropylcellulose) (HPC) 104 % of control

COC(=O)/C=N/NS(=O)(=O)c1cccc(N)c1
inactive: dose: 12.5 mg/kg/injection, schedule: Q01DX009 (ip), vehicle: water 99 % of control | dose: 25.0 mg/kg/injection, schedule: Q01DX009 (ip), vehicle: water 107 % of control | dose: 50.0 mg/kg/injection, schedule: Q01DX009 (ip), vehicle: water 92 % of control | dose: 100.0 mg/kg/injection, schedule: Q01DX009 (ip), vehicle: water 99 % of control and 102 % of control | dose: 200.0 mg/kg/injection, schedule: Q01DX009 (ip), vehicle: water 98 % of control

O=C(Nc1ccccc1)P(=S)(c1ccccc1)c1ccccc1
inactive: [9] 101 % of control and 112 % of control | [10] 104 % of control | [11] 101 % of control and 106 % of control

C[CH2][Ge]([CH2]C)[CH2]C.C[CH2][Ge]([Cl])[CH2]C
inactive: dose: 50.0 mg/kg/injection, schedule: Q01DX009 (ip), vehicle: saline 100 % of control | dose: 100.0 mg/kg/injection, schedule: Q01DX009 (ip), vehicle: saline 100 % of control | dose: 200.0 mg/kg/injection, schedule: Q01DX009 (ip), vehicle: saline 91 % of control

CCO/C=N\c1c(NC(N)=O)cnn1Cc1ccccc1
inactive: [4] 96 % of control | [5] 93 % of control | [6] 98 % of control

CC(C)c1ccc([C](C)(CC(C)(C)C)[Sn]([CH3])([CH3])[CH3])cc1 (configuration not stated)
inactive: dose: 3.13 mg/kg/injection, schedule: Q04DX003 (ip), vehicle: Klucel (hydroxypropylcellulose) (HPC) 105 % of control | dose: 6.25 mg/kg/injection, schedule: Q04DX003 (ip), vehicle: Klucel (hydroxypropylcellulose) (HPC) 92 % of control | dose: 12.5 mg/kg/injection, schedule: Q04DX003 (ip), vehicle: Klucel (hydroxypropylcellulose) (HPC) 91 % of control

Cc1cc(N=[N+]=[N-])c2ccc(F)cc2n1
inactive: dose: 60.0 mg/kg/injection, schedule: Q01DX005 (ip), vehicle: saline with Tween-80 94 % of control | dose: 120.0 mg/kg/injection, schedule: Q01DX005 (ip), vehicle: saline with Tween-80 92 % of control

O=C(O)CCCC1CCCCC1.[Mn]
inactive: [1] 116 % of control | [2] 108 % of control | [3] 99 % of control

CS(=O)(=O)c1nnc(-c2cc[n+]([O-])cc2)s1
inactive: [12] 114 % of control | [13] 114 % of control

Oc1c(Br)cc(Br)cc1Oc1c(O)c(Br)c(Br)c(Br)c1Br
inactive: [12] 104 % of control | [13] 102 % of control | dose: 25.0 mg/kg/injection, schedule: Q01DX005 (ip), vehicle: Klucel (hydroxypropylcellulose) (HPC) 104 % of control | [9] 100 % of control and 101 % of control | [10] 100 % of control | [11] 99 % of control

Cc1cc(C)nc(Nc2nnc(Nc3cc(C)cc(C)n3)c3ccccc23)c1
inactive: [1] 96 % of control | [2] 93 % of control | [3] 87 % of control

Cc1ccc(NNC2=NC(=S)NC(=O)C2)cc1
inactive: [14] 111 % of control | [15] 95 % of control | [16] 104 % of control

COC(=O)C(C(=O)OC)=S1C=CC=C1
inactive: dose: 100.0 mg/kg/injection, schedule: Q04DX003 (ip), vehicle: saline 106 % of control | dose: 200.0 mg/kg/injection, schedule: Q04DX003 (ip), vehicle: saline 100 % of control | dose: 400.0 mg/kg/injection, schedule: Q04DX003 (ip), vehicle: saline 106 % of control

CCOC(=O)Nc1cc(NC(=O)OCC)cc([N+](=O)[O-])c1
inactive: dose: 100.0 mg/kg/injection, schedule: Q04DX003 (ip), vehicle: saline with Tween-80 100 % of control | dose: 200.0 mg/kg/injection, schedule: Q04DX003 (ip), vehicle: saline with Tween-80 104 % of control | dose: 400.0 mg/kg/injection, schedule: Q04DX003 (ip), vehicle: saline with Tween-80 90 % of control

COc1cccc2c1C(=O)c1nccc3cc4c(c-2c13)OCO4
inactive: dose: 30.0 mg/kg/injection, schedule: Q01DX005 (ip), vehicle: Klucel (hydroxypropylcellulose) (HPC) 91 % of control | [7] 90 % of control | [8] 110 % of control

C=C1C(=O)OCC1C(=O)O (configuration not stated)
inactive: dose: 8.0 mg/kg/injection, schedule: Q01DX009 (ip), vehicle: saline 121 % of control | dose: 16.0 mg/kg/injection, schedule: Q01DX009 (ip), vehicle: saline 114 % of control | dose: 64.0 mg/kg/injection, schedule: Q01DX009 (ip), vehicle: saline 103 % of control

O=C1OP2(c3ccccc3)(OC(=O)c3ccccc32)c2ccccc21
inactive: dose: 12.5 mg/kg/injection, schedule: Q01DX009 (ip), vehicle: saline with Tween-80 98 % of control and 94 % of control | dose: 25.0 mg/kg/injection, schedule: Q01DX009 (ip), vehicle: saline with Tween-80 99 % of control and 92 % of control | [14] 90 % of control and 95 % of control | [15] 95 % of control | [16] 88 % of control

COc1ccc2c(c1)[C@@]13CCCC[C@H]1[C@@H](C2)N(C)CC3(C)O (some centres not stated)
inactive: dose: 100.0 mg/kg/injection, schedule: Q04DX002 (ip), vehicle: Klucel (hydroxypropylcellulose) (HPC) 97 % of control | dose: 200.0 mg/kg/injection, schedule: Q04DX002 (ip), vehicle: Klucel (hydroxypropylcellulose) (HPC) 105 % of control
